The experiment concerns the target T1, human ANO6 (variant 5) (Homo sapiens, UniProt Q4KMQ2).
T1 construct: expressed in transfected cells; host or cells: Fischer rat thyroid (FRT) cells
T1 sequence (Q4KMQ2 1-931 isoform Q4KMQ2-2): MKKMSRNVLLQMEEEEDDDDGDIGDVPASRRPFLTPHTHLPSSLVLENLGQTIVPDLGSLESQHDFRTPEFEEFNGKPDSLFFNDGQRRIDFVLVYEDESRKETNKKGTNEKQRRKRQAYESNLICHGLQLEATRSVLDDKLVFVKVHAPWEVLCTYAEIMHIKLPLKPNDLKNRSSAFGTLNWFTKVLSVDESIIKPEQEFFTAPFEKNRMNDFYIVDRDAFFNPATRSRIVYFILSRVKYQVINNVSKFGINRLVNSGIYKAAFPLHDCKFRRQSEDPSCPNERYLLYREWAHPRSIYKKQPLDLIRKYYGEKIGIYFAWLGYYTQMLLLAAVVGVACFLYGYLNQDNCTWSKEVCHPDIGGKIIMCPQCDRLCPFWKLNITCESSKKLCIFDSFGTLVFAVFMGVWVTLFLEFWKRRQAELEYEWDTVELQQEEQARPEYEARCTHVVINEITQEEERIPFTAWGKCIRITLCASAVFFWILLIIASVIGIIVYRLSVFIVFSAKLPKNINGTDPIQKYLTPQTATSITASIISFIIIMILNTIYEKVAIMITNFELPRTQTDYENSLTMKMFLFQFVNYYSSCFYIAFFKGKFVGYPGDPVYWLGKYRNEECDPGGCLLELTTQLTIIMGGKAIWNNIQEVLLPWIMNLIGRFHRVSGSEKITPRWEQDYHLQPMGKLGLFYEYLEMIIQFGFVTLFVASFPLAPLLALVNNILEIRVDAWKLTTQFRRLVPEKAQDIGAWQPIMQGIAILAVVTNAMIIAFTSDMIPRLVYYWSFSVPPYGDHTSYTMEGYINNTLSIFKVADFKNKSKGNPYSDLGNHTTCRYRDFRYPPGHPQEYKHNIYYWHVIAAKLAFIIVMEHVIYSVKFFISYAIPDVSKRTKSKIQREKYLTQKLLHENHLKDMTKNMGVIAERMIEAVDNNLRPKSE
In words: Lact C2 assay (measuring phosphatidylserine externalization scramblase function). The settings on record: FRT, FRT cells expressing human ANO6 (variant 5), ionomycin 10 µM, Lact-C2-GFP fluorescence, average of three tests; for inhibition at 1 µM: compound 1 µM, read-out: % Inhibition 1 µM; for inhibition at 0.05 µM: compound 50 nM, read-out: % Inhibition 50 nM. The experiment is classed as cell-based. In outline: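 Cells were pretreated 10 min with compound (50 nM, 100 nM, 1 µM; 1% DMSO), then given 10 µM ionomycin for 10 min. Surface phosphatidylserine was stained with 500 nM Lact-C2-GFP (10 min, 37 °C), fixed and imaged. Inhibition was scaled between untreated (100%) and ionomycin-alone (0%) wells.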

Consider `COc1ccc2nc(-c3cccc(Nc4cnc(-c5ccccn5)cn4)c3)[nH]c2c1` [Example 299, N-(3-(6-methoxy-1H-benzo[d]imidazol-2-yl)phenyl)-5-(pyridin-2-yl)pyrazin-2-amine], for which the inhibition (in general, the percentage by which the read-out fell short of the control) at 1 µM is more than 60%.

Take `FC(F)Oc1ccc2nc(-c3cccc(Nc4cnc(-c5ccccn5)cn4)c3)[nH]c2c1` [Example 300, N-(3-(6-(difluoromethoxy)-1H-benzo[d]imidazol-2-yl)phenyl)-5-(pyridin-2-yl) pyrazin-2-amine]: the inhibition at 0.05 µM was in the range of 30 to 60% and the inhibition at 1 µM was more than 60%.

`Clc1cc2[nH]c(-c3cccc(Nc4cnc(-c5ccccn5)cn4)c3)nc2cn1` [Example 301, N-(3-(6-chloro-1H-imidazo[4,5-c]pyridin-2-yl)phenyl)-5-(pyridin-2-yl)pyrazin-2-amine]: the inhibition at 1 µM was more than 60%. As to `FC(F)(F)c1ccc2nc(-c3cccc(Nc4cnc(-c5ccccn5)cn4)c3)[nH]c2c1` [Example 302, 5-(pyridin-2-yl)-N-(3-(6-(trifluoromethyl)-1H-benzo[d]imidazol-2-yl)phenyl)pyrazin-2-amine], the inhibition at 0.05 µM was more than 60% and the inhibition at 1 µM was more than 60%.

As to `Clc1cc2[nH]c(-c3cccc(Nc4ncc(-c5cscn5)cn4)c3)nc2cn1` [Example 303, N-(3-(6-chloro-1H-imidazo[4,5-c]pyridin-2-yl)phenyl)-5-(thiazol-4-yl)pyrimidin-2-amine], the inhibition at 1 µM was more than 60%. For the compound `FC(F)(F)c1ccc2nc(-c3cccc(Nc4ncc(-c5cscn5)cn4)c3)[nH]c2c1` [Example 304, 5-(thiazol-4-yl)-N-(3-(6-(trifluoromethyl)-1H-benzo[d]imidazol-2-yl)phenyl)pyrimidin-2-amine], the inhibition at 0.05 µM fell in the range of 30 to 60% and the inhibition at 1 µM was more than 60%.

With `Fc1ccnc(-c2ccc(Nc3cccc(-c4nc5ccc(C(F)(F)F)cc5[nH]4)c3)cc2)c1` [Example 305, N-(4-(4-fluoropyridin-2-yl)phenyl)-3-(6-(trifluoromethyl)-1H-benzo[d]imidazol-2-yl)aniline], the inhibition at 0.05 µM fell in the range of 30 to 60% and the inhibition at 1 µM is more than 60%. Take `FC(F)(F)c1ccc2nc(-c3ccnc(Nc4ncc(-c5ccccn5)cn4)c3)[nH]c2c1` [Example 306, 5-(pyridin-2-yl)-N-(4-(6-(trifluoromethyl)-1H-benzo[d]imidazol-2-yl)pyridin-2-yl)pyrimidin-2-amine]: the inhibition at 1 µM lay within 30 to 60%. Still for that read-out and setting: to `FC(F)(F)c1ccc2nc(-c3cncc(Nc4ncc(-c5ccccn5)cn4)c3)[nH]c2c1` [Example 307, 5-(pyridin-2-yl)-N-(5-(6-(trifluoromethyl)-1H-benzo[d]imidazol-2-yl)pyridin-3-yl)pyrimidin-2-amine] belongs 30 to 60%.

For the compound `Brc1ccc2nc(-c3cccc(Nc4ccc(-c5cccnn5)cc4)c3)[nH]c2c1` [Example 308, 3-(6-bromo-1H-benzo[d]imidazol-2-yl)-N-(4-(pyridazin-3-yl)phenyl)aniline], the inhibition at 0.05 µM is more than 60% and the inhibition at 1 µM is more than 60%. With `N#Cc1ccc(Nc2cccc(-c3nc4ccc(C(F)(F)F)cc4[nH]3)c2)nc1` [Example 314, 6-((3-(6-(trifluoromethyl)-1H-benzo[d]imidazol-2-yl)phenyl)amino)nicotinonitrile], the inhibition at 0.05 µM is more than 60% and the inhibition at 1 µM was more than 60%. As to `N#Cc1ccc(Nc2cccc(-c3nc4ccc(C(F)(F)F)cc4[nH]3)c2)cc1` [Example 315, 4-((3-(6-(trifluoromethyl)-1H-benzo[d]imidazol-2-yl)phenyl)amino)benzonitrile], the inhibition at 1 µM is more than 60%. In the case of `Fc1ccccc1-c1ccc(Nc2cccc(-c3nc4ccccc4[nH]3)c2)cc1` [Example 322, N-(3-(1H-benzo[d]imidazol-2-yl)phenyl)-2'-fluoro-[1,1'-biphenyl]-4-amine], the inhibition at 1 µM is more than 60%.

The values above are taken from patent EP4559908A1, “HETEROARYL DERIVATIVE COMPOUND AND USE THEREOF” (S2CBio Inc., priority 2022, dated 2024).
